The values below come from ChEMBL document CHEMBL1158620, “Synthesis and evaluation of novel alpha-amino cyclic boronates as inhibitors of HCV NS3 protease” (Bioorg Med Chem Lett, 2010).

In assay [1] the test system is Hepatitis C virus. Put plainly: Antiviral activity against HCV 1b by cell based replicon assay. The note with it: genotype 1b. The format is functional, organism-based, Hepacivirus hominis. In general terms: A replicon is a self-replicating genome or part of one, used to study replication in cells.
Assay [2] deals with Hepatitis C virus. Put plainly: Antiviral activity against HCV 1a by cell based replicon assay. The format is functional, organism-based, Hepacivirus hominis. The note with it: subtype 1a.
For assay [3], the system named is Hepatitis C virus. Put plainly: Inhibition of HCV 1a NS3/4A protease by FRET assay. The format is functional, Hepatitis C virus subtype 1a. The following applies: for IC50: Hepatitis C virus.

For `CC(C)(C)[C@@H](NC(=O)OC1CCCC1)C(=O)N1C[C@H](Oc2nccc3ccccc23)C[C@H]1C(=O)N[C@@H]1B(O)OC[C@@H]1C1CC1`, the concentration for a half-maximal effect (EC50) in the assay on Hepatitis C virus [1] and with Hepatitis C virus [2] was > 1000 nM each time. In the assay with Hepatitis C virus [3], the half-maximal inhibitory concentration (IC50) (as a rule, the concentration needed to halve the response being measured) is 1930 nM.
As for `CC(C)(C)[C@H](NC(=O)OC1CCCC1)C(=O)N1C[C@H](OC(=O)N2Cc3cccc(F)c3C2)C[C@H]1C(=O)N[C@H]1CCOB1O`, the EC50 in the assay on Hepatitis C virus [1] and with Hepatitis C virus [2] was > 1000 nM throughout. The IC50 in the assay on Hepatitis C virus [3] came to 23 nM.
As to `CC(C)(C)[C@H](NC(=O)OC1CCCC1)C(=O)N1C[C@H](OC(=O)N2Cc3cccc(F)c3C2)C[C@H]1C(=O)N[C@@H]1CCOB1O`, the EC50 in the assay with Hepatitis C virus [1] and in the assay on Hepatitis C virus [2] was > 1000 nM in each case. In the assay on Hepatitis C virus [3], the IC50 amounted to 5310 nM.
For the molecule `CC(C)(C)[C@H](NC(=O)OC1CCCC1)C(=O)N1C[C@H](OC(=O)N2Cc3cccc(F)c3C2)C[C@H]1C(=O)NC1CCCOB1O` (stereo not given in full), the EC50 in the assay on Hepatitis C virus [1] and in the assay on Hepatitis C virus [2] was > 1000 nM throughout. The molecule also registered an IC50 in the assay on Hepatitis C virus [3] of 320 nM.
`CC(C)(C)[C@H](NC(=O)OC1CCCC1)C(=O)N1C[C@H](OC(=O)N2Cc3cccc(F)c3C2)C[C@H]1C(=O)NC1CCCCOB1O` (stereo not given in full): the concentration for a half-maximal effect (EC50) with Hepatitis C virus [1] and with Hepatitis C virus [2] was > 1000 nM each time. Besides, in the assay on Hepatitis C virus [3], inhibition was half-maximal at 24 nM (IC50).
On to `CC[C@H]1COB(O)[C@H]1NC(=O)[C@@H]1C[C@@H](OC(=O)N2Cc3cccc(F)c3C2)CN1C(=O)[C@@H](NC(=O)OC1CCCC1)C(C)(C)C`, for which the EC50 in the assay with Hepatitis C virus [1] and with Hepatitis C virus [2] was > 1000 nM throughout. The molecule further returned an IC50 in the assay on Hepatitis C virus [3] of 330 nM.
On to `CC(C)(C)[C@H](NC(=O)OC1CCCC1)C(=O)N1C[C@H](OC(=O)N2Cc3cccc(F)c3C2)C[C@H]1C(=O)N[C@@H]1B(O)OC[C@@H]1C1CC1`, for which the EC50 in the assay on Hepatitis C virus [1] and in the assay with Hepatitis C virus [2] was > 1000 nM each time. The same molecule came in with a half-maximal inhibitory concentration (IC50) in the assay on Hepatitis C virus [3] of 200 nM.
Regarding `C[C@H]1C[C@H](NC(=O)[C@@H]2C[C@@H](OC(=O)N3Cc4cccc(F)c4C3)CN2C(=O)[C@@H](NC(=O)OC2CCCC2)C(C)(C)C)B(O)O1`, the EC50 in the assay with Hepatitis C virus [1] and with Hepatitis C virus [2] was > 1000 nM in each case. The molecule also registered an IC50 in the assay with Hepatitis C virus [3] of 340 nM.
Consider `C[C@H]1[C@H](C)OB(O)[C@H]1NC(=O)[C@@H]1C[C@@H](OC(=O)N2Cc3cccc(F)c3C2)CN1C(=O)[C@@H](NC(=O)OC1CCCC1)C(C)(C)C`, for which the concentration giving a half-maximal response (EC50) in the assay with Hepatitis C virus [1] and with Hepatitis C virus [2] was > 1000 nM in each case. The same molecule displayed an IC50 with Hepatitis C virus [3] of 4470 nM.
As for `CC(C)(C)[C@H](NC(=O)OC1CCCC1)C(=O)N1C[C@H](OC(=O)N2Cc3cccc(F)c3C2)C[C@H]1C(=O)N[C@H]1COB(O)C1`, the concentration giving a half-maximal response (EC50) in the assay on Hepatitis C virus [1] and with Hepatitis C virus [2] was > 1000 nM in each case. For the same molecule, the IC50 in the assay on Hepatitis C virus [3] was found to be 8500 nM.
As to `CC(C)(C)[C@@H](NC(=O)OC1CCCC1)C(=O)N1C[C@H](Oc2nccc3ccccc23)C[C@H]1C(=O)N[C@H]1CCOB1O`, the half-maximal effective concentration (EC50) with Hepatitis C virus [1] and in the assay with Hepatitis C virus [2] was > 1000 nM each time. Half-maximal inhibition with Hepatitis C virus [3] (IC50) was put at 120 nM.
Take `CC(C)(C)[C@@H](NC(=O)OC1CCCC1)C(=O)N1C[C@H](Oc2nccc3ccccc23)C[C@H]1C(=O)N[C@@H]1CCOB1O`: the EC50 in the assay on Hepatitis C virus [1] and with Hepatitis C virus [2] was > 1000 nM each time. Also, half-maximal inhibition in the assay on Hepatitis C virus [3] (IC50) was put at 2750 nM.
For `CC(C)(C)[C@@H](NC(=O)OC1CCCC1)C(=O)N1C[C@H](Oc2nccc3ccccc23)C[C@H]1C(=O)NC1CCCOB1O` (stereo not given in full), the EC50 in the assay with Hepatitis C virus [1] and in the assay with Hepatitis C virus [2] was > 1000 nM each time. Besides, 730 nM corresponded to half-maximal inhibition with Hepatitis C virus [3] (IC50).
Consider `CC(C)(C)[C@@H](NC(=O)OC1CCCC1)C(=O)N1C[C@H](Oc2nccc3ccccc23)C[C@H]1C(=O)NC1CCCCOB1O` (stereo not given in full), for which the EC50 in the assay with Hepatitis C virus [1] and in the assay with Hepatitis C virus [2] was > 1000 nM throughout. The IC50 in the assay on Hepatitis C virus [3] is 170 nM.
`CC(C)(C)[C@H](NC(=O)[C@@H](NC(=O)c1cnccn1)C1CCCCC1)C(=O)N1C[C@@H]2CCC[C@@H]2[C@H]1C(=O)N[C@H]1CCOB1O`: the EC50 in the assay on Hepatitis C virus [1] and in the assay on Hepatitis C virus [2] was > 1000 nM throughout. The 50% inhibitory concentration (IC50) with Hepatitis C virus [3] is 120 nM.
Turning to `CC(C)(C)NC(=O)N[C@H](C(=O)N1C[C@H]2[C@@H]([C@H]1C(=O)N[C@H]1CCOB1O)C2(C)C)C(C)(C)C`, the 50% effective concentration (EC50) in the assay with Hepatitis C virus [1] and with Hepatitis C virus [2] was > 1000 nM each time. In the assay on Hepatitis C virus [3], half-maximal inhibition (IC50) was put at 340 nM.
In the case of `CCC[C@H](NC(=O)[C@@H]1[C@H]2CCC[C@H]2CN1C(=O)[C@@H](NC(=O)[C@@H](NC(=O)c1cnccn1)C1CCCCC1)C(C)(C)C)C(=O)C(=O)NC1CC1`, in the assay on Hepatitis C virus [3], the affinity corresponds to a Ki of 44 nM and the IC50 amounted to 100 nM.
